Data from publication PMC9150124, “Design of a Potent, Selective, and Brain-Penetrant Inhibitor of Wnt-Deactivating Enzyme Notum by Optimization of a Crystallographic Fragment Hit” (Journal of Medicinal Chemistry, 2022).

Tests used:
Assay in all cases: SelectScreen kinase profiling, SSBK ZLyte SP Technology
Assay type in all cases: biochemical
[1] = target: kinase named in conditions (Homo sapiens, UniProt O00418); conditions: EEF2K, 10 μM
Method: (§1) Kinase selectivity screening was performed by Thermo Fisher Scientific (Paisley, U.K.) in their SelectScreen Biochemical Kinase Profiling Service. Assay information and data are presented in the Supporting Information.
(§2) Kinase selectivity screening was performed by ThermoFisher Scientific (Paisley, U.K.) in their SelectScreenTM
(§3) Biochemical Kinase Profiling service .

[2] = target: kinase named in conditions (Homo sapiens, UniProt O75582); conditions: RPS6KA5 (MSK1), 10 μM
Method: as §1, §2, §3

[3] = target: kinase named in conditions (Homo sapiens, UniProt P00533, C797S); conditions: EGFR (ErbB1) C797S, 10 μM
Method: as §1, §2, §3

[4] = target: kinase named in conditions (Homo sapiens, UniProt P00533, G719S); conditions: EGFR (ErbB1) G719S, 10 μM
Method: as §1, §2, §3

[5] = target: kinase named in conditions (Homo sapiens, UniProt P00533, L858R); conditions: EGFR (ErbB1) L858R, 10 μM
Sequence of kinase named in conditions (Homo sapiens, UniProt P00533, L858R) (P00533 25-1210 L858R): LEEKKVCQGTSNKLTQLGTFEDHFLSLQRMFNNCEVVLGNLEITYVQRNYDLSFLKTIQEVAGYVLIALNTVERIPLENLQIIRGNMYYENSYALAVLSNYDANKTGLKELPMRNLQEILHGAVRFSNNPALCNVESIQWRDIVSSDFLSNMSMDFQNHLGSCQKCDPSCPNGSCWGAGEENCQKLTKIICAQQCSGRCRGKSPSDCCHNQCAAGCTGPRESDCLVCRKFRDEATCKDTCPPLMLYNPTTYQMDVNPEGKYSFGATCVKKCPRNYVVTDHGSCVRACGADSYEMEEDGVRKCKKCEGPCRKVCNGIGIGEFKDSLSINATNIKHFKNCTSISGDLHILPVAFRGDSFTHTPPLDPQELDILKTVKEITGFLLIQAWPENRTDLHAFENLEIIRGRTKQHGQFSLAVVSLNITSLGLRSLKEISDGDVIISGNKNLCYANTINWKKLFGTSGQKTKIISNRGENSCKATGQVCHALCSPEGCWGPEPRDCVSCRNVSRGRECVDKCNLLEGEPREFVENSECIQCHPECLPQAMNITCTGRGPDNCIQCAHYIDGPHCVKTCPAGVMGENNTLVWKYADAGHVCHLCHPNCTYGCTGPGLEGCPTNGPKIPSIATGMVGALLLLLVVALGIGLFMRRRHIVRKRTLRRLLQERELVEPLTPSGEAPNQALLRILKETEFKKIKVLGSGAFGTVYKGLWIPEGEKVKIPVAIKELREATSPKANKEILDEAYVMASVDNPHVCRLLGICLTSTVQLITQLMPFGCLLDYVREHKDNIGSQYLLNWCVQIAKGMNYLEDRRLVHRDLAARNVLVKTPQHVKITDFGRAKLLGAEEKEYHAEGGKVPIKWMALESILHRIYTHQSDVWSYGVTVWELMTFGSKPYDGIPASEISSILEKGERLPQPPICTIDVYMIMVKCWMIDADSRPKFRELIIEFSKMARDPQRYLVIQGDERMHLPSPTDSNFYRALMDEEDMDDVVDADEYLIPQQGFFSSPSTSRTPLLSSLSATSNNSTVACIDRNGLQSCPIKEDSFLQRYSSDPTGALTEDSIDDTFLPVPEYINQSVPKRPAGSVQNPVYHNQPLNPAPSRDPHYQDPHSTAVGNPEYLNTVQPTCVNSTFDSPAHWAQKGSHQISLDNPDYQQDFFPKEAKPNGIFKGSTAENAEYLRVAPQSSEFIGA
Method: as §1, §2, §3

[6] = target: kinase named in conditions (Homo sapiens, UniProt P00533, L861Q); conditions: EGFR (ErbB1) L861Q, 10 μM
Method: as §1, §2, §3

[7] = target: kinase named in conditions (Homo sapiens, UniProt P06213); conditions: INSR, 10 μM
Method: as §1, §2, §3

[8] = target: kinase named in conditions (Homo sapiens, UniProt P14616); conditions: INSRR (IRR), 10 μM
Method: as §1, §2, §3

[9] = target: kinase named in conditions (Homo sapiens, UniProt P22607, V555M); conditions: FGFR3 V555M, 10 μM
Sequence of kinase named in conditions (Homo sapiens, UniProt P22607, V555M) (P22607 23-806 V555M): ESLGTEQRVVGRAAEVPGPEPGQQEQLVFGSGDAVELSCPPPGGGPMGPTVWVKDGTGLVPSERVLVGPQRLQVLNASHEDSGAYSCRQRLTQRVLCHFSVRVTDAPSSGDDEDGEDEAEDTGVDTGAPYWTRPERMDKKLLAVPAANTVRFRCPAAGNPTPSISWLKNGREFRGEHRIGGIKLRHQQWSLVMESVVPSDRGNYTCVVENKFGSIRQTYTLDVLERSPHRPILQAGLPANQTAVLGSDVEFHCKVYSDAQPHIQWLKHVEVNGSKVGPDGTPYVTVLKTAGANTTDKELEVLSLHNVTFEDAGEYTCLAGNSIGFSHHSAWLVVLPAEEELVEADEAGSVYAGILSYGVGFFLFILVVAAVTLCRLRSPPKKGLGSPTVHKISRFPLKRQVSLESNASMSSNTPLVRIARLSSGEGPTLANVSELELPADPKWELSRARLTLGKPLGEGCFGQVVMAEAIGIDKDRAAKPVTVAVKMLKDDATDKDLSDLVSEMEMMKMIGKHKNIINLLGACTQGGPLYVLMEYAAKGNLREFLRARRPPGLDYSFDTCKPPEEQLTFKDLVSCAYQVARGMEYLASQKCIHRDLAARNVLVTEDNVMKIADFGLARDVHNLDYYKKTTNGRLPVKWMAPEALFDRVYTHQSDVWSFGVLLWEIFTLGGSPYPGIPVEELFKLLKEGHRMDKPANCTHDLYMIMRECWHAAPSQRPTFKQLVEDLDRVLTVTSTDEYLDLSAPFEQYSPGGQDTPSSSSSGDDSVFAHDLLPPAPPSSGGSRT
Method: as §1, §2, §3

[10] = target: kinase named in conditions (Homo sapiens, UniProt P24941); conditions: CDK2/cyclin A, 10 μM
Method: as §1, §2, §3

[11] = target: kinase named in conditions (Homo sapiens, UniProt P29323); conditions: EPHB2, 10 μM
Method: as §1, §2, §3

[12] = target: kinase named in conditions (Homo sapiens, UniProt P30530); conditions: AXL, 10 μM
Method: as §1, §2, §3

[13] = target: kinase named in conditions (Homo sapiens, UniProt P36507); conditions: MAP2K2 (MEK2), 10 μM
Method: as §1, §2, §3

[14] = target: kinase named in conditions (Homo sapiens, UniProt P36888); conditions: FLT3, 10 μM
Method: as §1, §2, §3

[15] = target: kinase named in conditions (Homo sapiens, UniProt P45983); conditions: MAPK8 (JNK1), 10 μM
Method: as §1, §2, §3

[16] = target: kinase named in conditions (Homo sapiens, UniProt P45984); conditions: MAPK9 (JNK2), 10 μM
Sequence of kinase named in conditions (Homo sapiens, UniProt P45984) (P45984 whole entry): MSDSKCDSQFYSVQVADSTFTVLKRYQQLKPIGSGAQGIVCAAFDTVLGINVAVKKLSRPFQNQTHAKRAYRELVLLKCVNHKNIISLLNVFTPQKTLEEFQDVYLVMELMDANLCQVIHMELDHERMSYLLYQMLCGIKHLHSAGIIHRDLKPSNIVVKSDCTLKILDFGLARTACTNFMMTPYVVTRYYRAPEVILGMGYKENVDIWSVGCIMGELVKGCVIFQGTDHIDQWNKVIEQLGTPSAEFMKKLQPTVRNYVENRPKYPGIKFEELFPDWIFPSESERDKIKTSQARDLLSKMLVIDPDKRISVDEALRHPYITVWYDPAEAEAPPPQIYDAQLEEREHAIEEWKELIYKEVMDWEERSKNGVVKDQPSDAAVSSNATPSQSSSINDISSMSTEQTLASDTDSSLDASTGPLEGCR
Method: as §1, §2, §3

[17] = target: kinase named in conditions (Homo sapiens, UniProt P49759); conditions: CLK1, 10 μM
Method: as §1, §2, §3

[18] = target: kinase named in conditions (Homo sapiens, UniProt P52564); conditions: MAP2K6 (MKK6), 10 μM
Method: as §1, §2, §3

[19] = target: kinase named in conditions (Homo sapiens, UniProt P54760); conditions: EPHB4, 10 μM
Method: as §1, §2, §3

[20] = target: kinase named in conditions (Homo sapiens, UniProt Q02763, Y897S); conditions: TEK (TIE2) Y897S, 10 μM
Sequence of kinase named in conditions (Homo sapiens, UniProt Q02763, Y897S) (Q02763 23-1124 Y897S): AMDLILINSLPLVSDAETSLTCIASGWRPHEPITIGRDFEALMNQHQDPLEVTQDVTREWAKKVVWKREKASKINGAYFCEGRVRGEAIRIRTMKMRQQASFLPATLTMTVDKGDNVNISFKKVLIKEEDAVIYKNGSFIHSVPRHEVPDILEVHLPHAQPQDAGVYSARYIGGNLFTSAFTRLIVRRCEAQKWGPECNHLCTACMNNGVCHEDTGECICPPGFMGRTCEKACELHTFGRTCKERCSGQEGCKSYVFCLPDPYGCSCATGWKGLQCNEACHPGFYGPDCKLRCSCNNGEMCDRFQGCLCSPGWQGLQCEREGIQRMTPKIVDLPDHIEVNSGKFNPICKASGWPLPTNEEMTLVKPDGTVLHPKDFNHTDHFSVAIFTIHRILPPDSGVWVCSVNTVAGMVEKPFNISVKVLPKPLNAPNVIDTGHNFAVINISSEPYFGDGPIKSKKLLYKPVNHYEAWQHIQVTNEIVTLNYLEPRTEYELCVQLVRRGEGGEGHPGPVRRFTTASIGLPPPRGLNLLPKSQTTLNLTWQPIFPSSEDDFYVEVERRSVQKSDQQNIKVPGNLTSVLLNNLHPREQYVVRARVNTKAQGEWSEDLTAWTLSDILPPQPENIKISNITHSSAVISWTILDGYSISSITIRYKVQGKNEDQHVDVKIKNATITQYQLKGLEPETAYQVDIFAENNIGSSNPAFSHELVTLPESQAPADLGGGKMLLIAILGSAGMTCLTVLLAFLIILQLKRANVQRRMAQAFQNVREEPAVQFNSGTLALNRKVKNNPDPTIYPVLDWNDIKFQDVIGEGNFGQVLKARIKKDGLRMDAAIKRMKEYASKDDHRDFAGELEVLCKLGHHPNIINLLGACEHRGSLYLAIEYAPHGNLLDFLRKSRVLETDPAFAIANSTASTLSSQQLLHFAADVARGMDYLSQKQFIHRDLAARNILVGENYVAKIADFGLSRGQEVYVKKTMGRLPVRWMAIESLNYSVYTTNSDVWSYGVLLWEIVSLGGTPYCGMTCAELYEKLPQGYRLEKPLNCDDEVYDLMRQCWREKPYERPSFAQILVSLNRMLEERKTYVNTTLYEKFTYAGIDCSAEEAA
Method: as §1, §2, §3

[21] = target: kinase named in conditions (Homo sapiens, UniProt Q13153); conditions: PAK1, 10 μM
Method: as §1, §2, §3

[22] = target: kinase named in conditions (Homo sapiens, UniProt Q13557); conditions: CAMK2D (CaMKII delta), 10 μM
Method: as §1, §2, §3

[23] = target: kinase named in conditions (Homo sapiens, UniProt Q15303); conditions: ERBB4 (HER4), 10 μM
Method: as §1, §2, §3

[24] = target: kinase named in conditions (Homo sapiens, UniProt Q16620); conditions: NTRK2 (TRKB), 10 μM
Sequence of kinase named in conditions (Homo sapiens, UniProt Q16620) (Q16620 32-822): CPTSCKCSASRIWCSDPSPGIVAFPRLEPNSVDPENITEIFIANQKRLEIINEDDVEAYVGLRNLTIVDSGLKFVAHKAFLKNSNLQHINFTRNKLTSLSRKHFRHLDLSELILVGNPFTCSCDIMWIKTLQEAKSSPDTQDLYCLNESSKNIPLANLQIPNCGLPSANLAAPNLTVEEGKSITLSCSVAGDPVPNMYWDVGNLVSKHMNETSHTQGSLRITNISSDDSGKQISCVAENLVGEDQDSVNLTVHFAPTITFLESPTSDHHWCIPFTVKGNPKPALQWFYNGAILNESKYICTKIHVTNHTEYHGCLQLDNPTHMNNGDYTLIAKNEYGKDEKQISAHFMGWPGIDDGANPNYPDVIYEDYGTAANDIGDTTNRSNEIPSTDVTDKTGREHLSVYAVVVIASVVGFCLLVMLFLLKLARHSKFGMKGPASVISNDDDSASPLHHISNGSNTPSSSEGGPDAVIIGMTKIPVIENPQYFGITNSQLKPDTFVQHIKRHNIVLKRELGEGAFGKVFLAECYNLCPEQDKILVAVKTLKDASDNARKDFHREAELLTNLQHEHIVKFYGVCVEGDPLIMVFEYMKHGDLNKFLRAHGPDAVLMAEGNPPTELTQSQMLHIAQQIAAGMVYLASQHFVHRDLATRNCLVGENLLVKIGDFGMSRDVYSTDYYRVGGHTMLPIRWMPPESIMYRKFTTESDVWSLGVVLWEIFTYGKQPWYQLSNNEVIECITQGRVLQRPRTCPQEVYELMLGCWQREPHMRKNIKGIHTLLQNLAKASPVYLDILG
Method: as §1, §2, §3

[25] = target: kinase named in conditions (Homo sapiens, UniProt Q16816); conditions: PHKG1, 10 μM
Method: as §1, §2, §3

[26] = target: kinase named in conditions (Homo sapiens, UniProt Q7KZI7); conditions: MARK2, 10 μM
Method: as §1, §2, §3

[27] = target: kinase named in conditions (Homo sapiens, UniProt Q9BZL6); conditions: PRKD2 (PKD2), 10 μM
Method: as §1, §2, §3

[28] = target: kinase named in conditions (Homo sapiens, UniProt Q9H0K1); conditions: SNF1LK2, 10 μM
Method: as §1, §2, §3

[29] = target: kinase named in conditions (Homo sapiens, UniProt Q9H1R3); conditions: MYLK2 (skMLCK), 10 μM
Method: as §1, §2, §3

[30] = target: kinase named in conditions (Homo sapiens, UniProt Q9UK32); conditions: RPS6KA6 (RSK4), 10 μM
Method: as §1, §2, §3

[31] = target: kinase named in conditions (Homo sapiens, UniProt Q9UM73); conditions: ALK, 10 μM
Method: as §1, §2, §3

[32] = target: kinase named in conditions (Homo sapiens, UniProt Q9Y243); conditions: AKT3 (PKB gamma), 10 μM
Method: as §1, §2, §3

[33] = target: kinase named in conditions (Homo sapiens, UniProt Q9Y463); conditions: DYRK1B, 10 μM
Sequence of kinase named in conditions (Homo sapiens, UniProt Q9Y463) (Q9Y463 whole entry): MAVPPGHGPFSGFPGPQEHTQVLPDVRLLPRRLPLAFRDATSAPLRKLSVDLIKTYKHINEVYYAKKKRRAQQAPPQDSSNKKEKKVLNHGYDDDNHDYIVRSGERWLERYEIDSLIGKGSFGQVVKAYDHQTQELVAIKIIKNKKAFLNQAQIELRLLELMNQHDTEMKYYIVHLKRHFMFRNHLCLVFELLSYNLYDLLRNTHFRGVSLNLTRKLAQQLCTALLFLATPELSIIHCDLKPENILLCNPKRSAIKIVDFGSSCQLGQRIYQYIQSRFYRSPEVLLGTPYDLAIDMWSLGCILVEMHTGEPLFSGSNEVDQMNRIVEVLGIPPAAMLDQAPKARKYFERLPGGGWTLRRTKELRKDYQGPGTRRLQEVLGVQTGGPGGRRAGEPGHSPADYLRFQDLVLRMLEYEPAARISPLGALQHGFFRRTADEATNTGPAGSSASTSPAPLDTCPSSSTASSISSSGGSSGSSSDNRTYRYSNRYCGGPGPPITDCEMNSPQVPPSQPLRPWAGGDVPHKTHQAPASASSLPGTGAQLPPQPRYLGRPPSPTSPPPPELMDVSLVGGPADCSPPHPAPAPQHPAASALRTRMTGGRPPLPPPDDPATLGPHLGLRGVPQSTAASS
Method: as §1, §2, §3

[34] = target: kinase named in conditions (Homo sapiens, UniProt Q9Y4K4); conditions: MAP4K5 (KHS1), 10 μM
Method: as §1, §2, §3

FC(F)(F)c1c(Cl)ccc(-n2ccnn2)c1Cl [8l, 1-(2,4-Dichloro-3-(trifluoromethyl)phenyl)-1H-1,2,3-triazole]
inhibition at 10 µM [1]: 3%
inhibition at 10 µM [2]: 9%
inhibition at 10 µM [3]: -2%
inhibition at 10 µM [4]: -1%
inhibition at 10 µM [5]: 2%
inhibition at 10 µM [6]: 0%
inhibition at 10 µM [7]: 6%
inhibition at 10 µM [8]: 11%
inhibition at 10 µM [9]: -14%
inhibition at 10 µM [10]: 6%
inhibition at 10 µM [11]: 2%
inhibition at 10 µM [12]: 4%
inhibition at 10 µM [13]: 6%
inhibition at 10 µM [14]: 15%
inhibition at 10 µM [15]: 6%
inhibition at 10 µM [16]: -17%
inhibition at 10 µM [17]: 0%
inhibition at 10 µM [18]: 3%
inhibition at 10 µM [19]: 1%
inhibition at 10 µM [20]: 2%
inhibition at 10 µM [21]: 23%
inhibition at 10 µM [22]: 7%
inhibition at 10 µM [23]: 1%
inhibition at 10 µM [24]: 5%
inhibition at 10 µM [25]: 8%
inhibition at 10 µM [26]: -7%
inhibition at 10 µM [27]: 0%
inhibition at 10 µM [28]: 2%
inhibition at 10 µM [29]: 15%
inhibition at 10 µM [30]: 0%
inhibition at 10 µM [31]: 5%
inhibition at 10 µM [32]: 3%
inhibition at 10 µM [33]: 16%
inhibition at 10 µM [34]: -10%
